What follows are molecules tested on test plant species (assay: Post-emergent herbicidal activity test (greenhouse, foliar spray, visual growth reduction)). Conditions: post-emergence, 336 h, ECHCG: barnyardgrass (Echinochloa crus-galli), 140 g ai/ha, 14 days after application, read-out: Visual Growth Reduction (%) 14 Days After Application, ECHCG.
Type: in vivo
Procedure: Post-emergent Test: Seeds or nutlets of the desired test plant species were planted in Sun Gro Metro-Mix® 360 planting mixture, which typically has a pH of 6.0 to 6.8 and an organic matter content of about 30 percent, in plastic pots with a surface area of 64 square centimeters. In some aspects, to ensure good germination and healthy plants, a fungicide treatment and/or other chemical or physical treatment was applied. The plants were grown for 7-21 d in a greenhouse with an approximate 15 h photoperiod which was maintained at 23-29° C. during the day and 22-28° C. during the night. Nutrients and water were added on a regular basis and supplemental lighting was provided with overhead metal halide 1000-Watt lamps as necessary. Plants were used for testing when they reached the first or second true leaf stage. A weighed amount, determined by the highest rate to be tested, of each test compound was placed in a 25 mL glass vial and was dissolved in 4 mL of a 97:3 v/v mixture of acetone and DMSO to obtain concentrated stock solutions. […] The concentrated stock solutions obtained were diluted with 20 mL of an aqueous mixture containing acetone, water, isopropyl alcohol, DMSO, […] crop oil concentrate, and X-77 surfactant in a 48.5:39:10:1.5:1.0:0.02 v/v ratio to obtain spray solutions containing the application rate. Compound requirements are based upon a 12 mL application volume at a rate of 187 liters per hectare (L/ha). Formulated compounds were applied to the plant material with an overhead Mandel track sprayer equipped with […] nozzles calibrated to deliver 187 L/ha over an application area of 0.64 square meters at a spray height of 18 inches (43 cm) above the average plant canopy height. Control plants were sprayed in the same manner with the solvent blank. The treated plants and control plants were placed in a greenhouse as described above and watered by subirrigation to prevent wash-off of the test compounds. After 14 d, the condition of the test plants as compared with that of the nontreated and control plants was determined visually and scored on a scale of 0 to 100 percent where 0 corresponds to no injury and 100 corresponds to complete control. In the reporting of the results, Table A: Percent Growth Reduction Conversion Table was used.
In the case of `N#Cc1cc(-c2nc(C(=O)O)c(Cl)cc2F)c(Cl)cc1C(F)(F)F` [F329, 3-Chloro-6-(2-chloro-5-cyano-4-(trifluoromethyl)phenyl)-5-fluoropicolinic acid], the pest or weed control at 140 g/ha is reported as 60 to 74%.
`C#Cc1cc(-c2nc(C(=O)OC)c(Cl)cc2F)c(Cl)cc1C(F)(F)F` [F251, Methyl 3-chloro-6-(2-chloro-5-ethynyl-4-(trifluoromethyl)phenyl)-5-yl) picolinate] gave a pest or weed control at 140 g/ha of 0 to 29%.

Same assay, conditions: post-emergence, 336 h, IPOHE: ivy-leaf morning glory (Ipomoea hederacea), 140 g ai/ha, 14 days after application, read-out: Visual Growth Reduction (%) 14 Days After Application, IPOHE
In the case of `N#Cc1cc(-c2nc(C(=O)O)c(Cl)cc2F)c(Cl)cc1C(F)(F)F` [F329, 3-Chloro-6-(2-chloro-5-cyano-4-(trifluoromethyl)phenyl)-5-fluoropicolinic acid], the pest or weed control at 140 g/ha is reported as 95 to 100%.
`C#Cc1cc(-c2nc(C(=O)OC)c(Cl)cc2F)c(Cl)cc1C(F)(F)F` [F251, Methyl 3-chloro-6-(2-chloro-5-ethynyl-4-(trifluoromethyl)phenyl)-5-yl) picolinate] was tested, and the pest or weed control at 140 g/ha was 95 to 100%.

Same assay, conditions: post-emergence, 336 h, KCHSC: kochia (Bassia scoparia), 140 g ai/ha, 14 days after application, read-out: Visual Growth Reduction (%) 14 Days After Application, KCHSC
`N#Cc1cc(-c2nc(C(=O)O)c(Cl)cc2F)c(Cl)cc1C(F)(F)F` [F329, 3-Chloro-6-(2-chloro-5-cyano-4-(trifluoromethyl)phenyl)-5-fluoropicolinic acid] showed a pest or weed control at 140 g/ha of 60 to 74%.
`C#Cc1cc(-c2nc(C(=O)OC)c(Cl)cc2F)c(Cl)cc1C(F)(F)F` [F251, Methyl 3-chloro-6-(2-chloro-5-ethynyl-4-(trifluoromethyl)phenyl)-5-yl) picolinate] gave a pest or weed control at 140 g/ha of 60 to 74%.

Same assay, conditions: post-emergence, 336 h, ORYSA: rice (Oryza sativa), 140 g ai/ha, 14 days after application, read-out: Visual Growth Reduction (%) 14 Days After Application, ORYSA
`N#Cc1cc(-c2nc(C(=O)O)c(Cl)cc2F)c(Cl)cc1C(F)(F)F` [F329, 3-Chloro-6-(2-chloro-5-cyano-4-(trifluoromethyl)phenyl)-5-fluoropicolinic acid] showed a pest or weed control at 140 g/ha of 0 to 29%.
In the case of `C#Cc1cc(-c2nc(C(=O)OC)c(Cl)cc2F)c(Cl)cc1C(F)(F)F` [F251, Methyl 3-chloro-6-(2-chloro-5-ethynyl-4-(trifluoromethyl)phenyl)-5-yl) picolinate], the pest or weed control at 140 g/ha is reported as 0 to 29%.

Same assay, conditions: post-emergence, 336 h, SETFA: giant foxtail (Setaria faberi), 140 g ai/ha, 14 days after application, read-out: Visual Growth Reduction (%) 14 Days After Application, SETFA
`N#Cc1cc(-c2nc(C(=O)O)c(Cl)cc2F)c(Cl)cc1C(F)(F)F` [F329, 3-Chloro-6-(2-chloro-5-cyano-4-(trifluoromethyl)phenyl)-5-fluoropicolinic acid] gave a pest or weed control at 140 g/ha of 85 to 94%.
`C#Cc1cc(-c2nc(C(=O)OC)c(Cl)cc2F)c(Cl)cc1C(F)(F)F` [F251, Methyl 3-chloro-6-(2-chloro-5-ethynyl-4-(trifluoromethyl)phenyl)-5-yl) picolinate] gave a pest or weed control at 140 g/ha of 85 to 94%.

Same assay, conditions: post-emergence, 336 h, SORVU: grain sorghum (Sorghum vulgare), 140 g ai/ha, 14 days after application, read-out: Visual Growth Reduction (%) 14 Days After Application, SORVU
Molecule `N#Cc1cc(-c2nc(C(=O)O)c(Cl)cc2F)c(Cl)cc1C(F)(F)F` [F329, 3-Chloro-6-(2-chloro-5-cyano-4-(trifluoromethyl)phenyl)-5-fluoropicolinic acid] has a pest or weed control at 140 g/ha of 75 to 84%.
With `C#Cc1cc(-c2nc(C(=O)OC)c(Cl)cc2F)c(Cl)cc1C(F)(F)F` [F251, Methyl 3-chloro-6-(2-chloro-5-ethynyl-4-(trifluoromethyl)phenyl)-5-yl) picolinate] the pest or weed control at 140 g/ha was 85 to 94%.

Same assay, conditions: post-emergence, 336 h, STEME: common chickweed (Stellaria media), 140 g ai/ha, 14 days after application, read-out: Visual Growth Reduction (%) 14 Days After Application, STEME
For `N#Cc1cc(-c2nc(C(=O)O)c(Cl)cc2F)c(Cl)cc1C(F)(F)F` [F329, 3-Chloro-6-(2-chloro-5-cyano-4-(trifluoromethyl)phenyl)-5-fluoropicolinic acid], the pest or weed control at 140 g/ha was 0 to 29%.
Molecule `C#Cc1cc(-c2nc(C(=O)OC)c(Cl)cc2F)c(Cl)cc1C(F)(F)F` [F251, Methyl 3-chloro-6-(2-chloro-5-ethynyl-4-(trifluoromethyl)phenyl)-5-yl) picolinate] has a pest or weed control at 140 g/ha of 0 to 29%.

Same assay, conditions: post-emergence, 336 h, TRZAS: wheat, spring (Triticum aestivum), 140 g ai/ha, 14 days after application, read-out: Visual Growth Reduction (%) 14 Days After Application, TRZAS
Work on `N#Cc1cc(-c2nc(C(=O)O)c(Cl)cc2F)c(Cl)cc1C(F)(F)F` [F329, 3-Chloro-6-(2-chloro-5-cyano-4-(trifluoromethyl)phenyl)-5-fluoropicolinic acid] yielded a pest or weed control at 140 g/ha of 45 to 59%.
Molecule `C#Cc1cc(-c2nc(C(=O)OC)c(Cl)cc2F)c(Cl)cc1C(F)(F)F` [F251, Methyl 3-chloro-6-(2-chloro-5-ethynyl-4-(trifluoromethyl)phenyl)-5-yl) picolinate] has a pest or weed control at 140 g/ha of 0 to 29%.

Same assay, conditions: post-emergence, 336 h, blackgrass (Alopecurus myosuroides), 14 Days After Application, 140 g ai/ha, read-out: Visual Growth Reduction (%) ALOMY
In the case of `N#Cc1cc(-c2nc(C(=O)O)c(Cl)cc2F)c(Cl)cc1C(F)(F)F` [F329, 3-Chloro-6-(2-chloro-5-cyano-4-(trifluoromethyl)phenyl)-5-fluoropicolinic acid], the pest or weed control at 140 g/ha is reported as 0 to 29%.
Molecule `C#Cc1cc(-c2nc(C(=O)OC)c(Cl)cc2F)c(Cl)cc1C(F)(F)F` [F251, Methyl 3-chloro-6-(2-chloro-5-ethynyl-4-(trifluoromethyl)phenyl)-5-yl) picolinate] has a pest or weed control at 140 g/ha of 0 to 29%.

Same assay, conditions: post-emergence, 336 h, canada thistle (Cirsium arvense), 14 Days After Application, 140 g ai/ha, read-out: Visual Growth Reduction (%) CIRAR
Work on `N#Cc1cc(-c2nc(C(=O)O)c(Cl)cc2F)c(Cl)cc1C(F)(F)F` [F329, 3-Chloro-6-(2-chloro-5-cyano-4-(trifluoromethyl)phenyl)-5-fluoropicolinic acid] yielded a pest or weed control at 140 g/ha of 85 to 94%.
`C#Cc1cc(-c2nc(C(=O)OC)c(Cl)cc2F)c(Cl)cc1C(F)(F)F` [F251, Methyl 3-chloro-6-(2-chloro-5-ethynyl-4-(trifluoromethyl)phenyl)-5-yl) picolinate] showed a pest or weed control at 140 g/ha of 85 to 94%.

Same assay, conditions: post-emergence, 336 h, crabgrass (Digitaria sanguinalis), 14 Days After Application, 140 g ai/ha, read-out: Visual Growth Reduction (%) DIGSA
For `N#Cc1cc(-c2nc(C(=O)O)c(Cl)cc2F)c(Cl)cc1C(F)(F)F` [F329, 3-Chloro-6-(2-chloro-5-cyano-4-(trifluoromethyl)phenyl)-5-fluoropicolinic acid], the pest or weed control at 140 g/ha was 75 to 84%.
With `C#Cc1cc(-c2nc(C(=O)OC)c(Cl)cc2F)c(Cl)cc1C(F)(F)F` [F251, Methyl 3-chloro-6-(2-chloro-5-ethynyl-4-(trifluoromethyl)phenyl)-5-yl) picolinate] the pest or weed control at 140 g/ha was 75 to 84%.

Same assay, conditions: post-emergence, 336 h, lambsquarters (Chenopodium album), 14 Days After Application, 140 g ai/ha, read-out: Visual Growth Reduction (%) CHEAL
With `N#Cc1cc(-c2nc(C(=O)O)c(Cl)cc2F)c(Cl)cc1C(F)(F)F` [F329, 3-Chloro-6-(2-chloro-5-cyano-4-(trifluoromethyl)phenyl)-5-fluoropicolinic acid] the pest or weed control at 140 g/ha was 75 to 84%.
In the case of `C#Cc1cc(-c2nc(C(=O)OC)c(Cl)cc2F)c(Cl)cc1C(F)(F)F` [F251, Methyl 3-chloro-6-(2-chloro-5-ethynyl-4-(trifluoromethyl)phenyl)-5-yl) picolinate], the pest or weed control at 140 g/ha is reported as 95 to 100%.

Same assay, conditions: post-emergence, 336 h, redroot pigweed (Amaranthus retroflexus), 14 Days After Application, 140 g ai/ha, read-out: Visual Growth Reduction (%) AMARE
`N#Cc1cc(-c2nc(C(=O)O)c(Cl)cc2F)c(Cl)cc1C(F)(F)F` [F329, 3-Chloro-6-(2-chloro-5-cyano-4-(trifluoromethyl)phenyl)-5-fluoropicolinic acid] was tested, and the pest or weed control at 140 g/ha was 60 to 74%.
Work on `C#Cc1cc(-c2nc(C(=O)OC)c(Cl)cc2F)c(Cl)cc1C(F)(F)F` [F251, Methyl 3-chloro-6-(2-chloro-5-ethynyl-4-(trifluoromethyl)phenyl)-5-yl) picolinate] yielded a pest or weed control at 140 g/ha of 85 to 94%.

Same assay, conditions: post-emergence, 336 h, wild oat (Avena fatua), 14 Days After Application, 140 g ai/ha, read-out: Visual Growth Reduction (%) AVEFA
In the case of `N#Cc1cc(-c2nc(C(=O)O)c(Cl)cc2F)c(Cl)cc1C(F)(F)F` [F329, 3-Chloro-6-(2-chloro-5-cyano-4-(trifluoromethyl)phenyl)-5-fluoropicolinic acid], the pest or weed control at 140 g/ha is reported as 60 to 74%.
With `C#Cc1cc(-c2nc(C(=O)OC)c(Cl)cc2F)c(Cl)cc1C(F)(F)F` [F251, Methyl 3-chloro-6-(2-chloro-5-ethynyl-4-(trifluoromethyl)phenyl)-5-yl) picolinate] the pest or weed control at 140 g/ha was 0 to 29%.

Same assay, conditions: post-emergence, 336 h, yellow nutsedge (Cyperus esculentus), 14 Days After Application, 140 g ai/ha, read-out: Visual Growth Reduction (%) CYPES
With `N#Cc1cc(-c2nc(C(=O)O)c(Cl)cc2F)c(Cl)cc1C(F)(F)F` [F329, 3-Chloro-6-(2-chloro-5-cyano-4-(trifluoromethyl)phenyl)-5-fluoropicolinic acid] the pest or weed control at 140 g/ha was 0 to 29%.
`C#Cc1cc(-c2nc(C(=O)OC)c(Cl)cc2F)c(Cl)cc1C(F)(F)F` [F251, Methyl 3-chloro-6-(2-chloro-5-ethynyl-4-(trifluoromethyl)phenyl)-5-yl) picolinate] was tested, and the pest or weed control at 140 g/ha was 0 to 29%.

— patent publication US20230017045A1, “PYRIDINE AND PYRIMIDINE CARBOXYLATE HERBICIDES AND METHODS OF USE THEREOF” (Dow AgroSciences LLC, priority 2017, published 2023)
